# Measurements taken from patent publication US11072588B2, “Barbituric acid derivatives comprising cationic and lipophilic groups” (UNIVERSITETET I TROMSØ—NORGES ARKTISKE UNIVERSITET, priority 2017, dated 2021).
# Read-outs that look alike come from different tables or passages of the source.
# Legend:
# [1] = system: Corynebacterium glutamicum ATCC 13032; experiment: MIC assay, antibiotic susceptible reference strain; format: cell-based; settings: Corynebacterium glutamicum, ATCC13032, read-out: Antimicrobial activity (MIC) C. g
# Method: (§1) Working solutions of the test derivatives were prepared with up to 100% DMSO and stored at −20° C. If necessary, the solutions were heated to 40-80° C. before testing to facilitate complete dissolution. Double-distilled water was used in all dilutions prepared. […] A microdilution susceptibility test was used for MIC determination according to Clinical and Laboratory Standards Institute, “Methods for Dilution Antimicrobial Sisceptibility Tests for Bacteria That Graw Aerobically”, Approved Standard M07-A9, edition 2012, with modifications as described by Igumnova et al (Bioorg Med Chem, 2016, 24 (22), 5884-5894).
# (§2) Briefly, the bacterial inoculum was adjusted to approximately 2.5-3×10^4 cells/mL in Mueller-Hinton broth (MHB, Difco Laboratories, USA), and incubated in a ratio of 1:1 with test derivatives in polystyrene 96-well flat-bottom microplates (NUNC, Roskilde, Denmark). Positive growth control (without test derivatives) and negative control (without bacteria) were included. The reference antibiotic was oxytetracycline hydrochloride (Sigma Aldrich, Saint Louis, Mo., USA). The microplates were incubated in an EnVision microplate reader (Perkin-Elmer, Turku, Finland) placed in an incubator set to 35° C. for 48 h. The MIC value was defined as the lowest concentration of derivative resulting in no bacterial growth as determined by OD600 measurement. All derivatives were tested in three parallels.
# [2] = system: Escherichia coli ATCC 25922; experiment: MIC assay, antibiotic susceptible reference strain; format: cell-based; settings: Escherichia coli, ATCC25922, read-out: Antimicrobial activity (MIC) E. c
# Method: as §1, §2
# [3] = system: Pseudomonas aeruginosa PA01, DSM 19880 (ATCC 15692); experiment: MIC assay, antibiotic susceptible reference strain; format: cell-based; settings: Pseudomonas aeruginosa, read-out: Antimicrobial activity (MIC) P. a
# Method: as §1, §2
# [4] = system: Staphylococcus aureus ATCC 9144; experiment: MIC assay, antibiotic susceptible reference strain; format: cell-based; settings: Staphylococcus aureus, ATCC9144, read-out: Antimicrobial activity (MIC) S. a
# Method: as §1, §2
# E. faecium 50673722 = experiment: MIC, multi-resistant clinical isolate; format: cell-based, Enterococcus faecium; settings: for MIC: Enterococcus faecium, read-out: Antimicrobial activity (MIC); for selectivity index (EC50/MIC): RBC EC50 / MIC
# Method: as §1, §2
# (§3) The MIC was determined as explained above with some exceptions; working solutions of test derivatives were prepared from concentrated DMSO stocks stored at room temperature, the density of the bacterial inoculum was increased 40× to 1-1.2×10^6 cells/mL, enterococci were incubated in Brain Heart Infusion broth (BHIB, Difco Laboratories, USA), the microplates were incubated for 24 h, and the derivatives were tested in four parallels.
# E. faecium 50758899 = experiment: MIC, multi-resistant clinical isolate; format: cell-based, Enterococcus faecium; settings: for MIC: Enterococcus faecium, read-out: Antimicrobial activity (MIC); for selectivity index (EC50/MIC): RBC EC50 / MIC
# Method: as §1, §2, §3
# E. faecium 50901530 = experiment: MIC, multi-resistant clinical isolate; format: cell-based, Enterococcus faecium; settings: for MIC: Enterococcus faecium, read-out: Antimicrobial activity (MIC); for selectivity index (EC50/MIC): RBC EC50 / MIC
# Method: as §1, §2, §3
# E. faecium K36-18 = experiment: MIC, multi-resistant clinical isolate; format: cell-based, Enterococcus faecium; settings: for MIC: Enterococcus faecium, K3618, read-out: Antimicrobial activity (MIC); for selectivity index (EC50/MIC): RBC EC50 / MIC, E. faecium K36-18
# Method: as §1, §2, §3
# E. faecium TUH50-22 = experiment: MIC, multi-resistant clinical isolate; format: cell-based, Enterococcus faecium; settings: for MIC: Enterococcus faecium, TUH5022, read-out: Antimicrobial activity (MIC); for selectivity index (EC50/MIC): RBC EC50 / MIC
# Method: as §1, §2, §3
# E. coli 50579417 = experiment: MIC, multi-resistant clinical isolate; format: cell-based, Escherichia coli; settings: for MIC: Escherichia coli, read-out: Antimicrobial activity (MIC); for selectivity index (EC50/MIC): RBC EC50 / MIC
# Method: as §1, §2, §3
# E. coli 50639799 = experiment: MIC, multi-resistant clinical isolate; format: cell-based, Escherichia coli; settings: for MIC: Escherichia coli, read-out: Antimicrobial activity (MIC); for selectivity index (EC50/MIC): RBC EC50 / MIC
# Method: as §1, §2, §3
# E. coli 50676002 = experiment: MIC, multi-resistant clinical isolate; format: cell-based, Escherichia coli; settings: for selectivity index (EC50/MIC): RBC EC50 / MIC
# Method: as §1, §2, §3
# E. coli 50739822 = experiment: MIC, multi-resistant clinical isolate; format: cell-based, Escherichia coli; settings: for MIC: Escherichia coli, read-out: Antimicrobial activity (MIC); for selectivity index (EC50/MIC): RBC EC50 / MIC
# Method: as §1, §2, §3
# E. coli 50857972 = experiment: MIC, multi-resistant clinical isolate; format: cell-based, Escherichia coli; settings: for MIC: Escherichia coli, read-out: Antimicrobial activity (MIC); for selectivity index (EC50/MIC): RBC EC50 / MIC
# Method: as §1, §2, §3
# A. baumanii K12-21 = experiment: MIC, multi-resistant clinical isolate; format: cell-based, Acinetobacter baumannii; settings: for MIC: Acinetobacter baumannii, K1221, read-out: Antimicrobial activity (MIC); for selectivity index (EC50/MIC): RBC EC50 / MIC
# Method: as §1, §2, §3
# A. baumanii K55-13 = experiment: MIC, multi-resistant clinical isolate; format: cell-based, Acinetobacter baumannii; settings: for MIC: Acinetobacter baumannii, K5513, read-out: Antimicrobial activity (MIC); for selectivity index (EC50/MIC): RBC EC50 / MIC
# Method: as §1, §2, §3
# A. baumanii K63-58 = experiment: MIC, multi-resistant clinical isolate; format: cell-based, Acinetobacter baumannii; settings: A. baumanii K63-58, resistant to colistin; for MIC: Acinetobacter baumannii, K6358, 24 h, read-out: Antimicrobial activity (MIC); for selectivity index (EC50/MIC): RBC EC50 / MIC
# Method: as §1, §2, §3
# S. epidermidis = experiment: Anti-biofilm activity (inhibition of biofilm formation); format: cell-based; settings: Staphylococcus epidermidis, read-out: Anti-biofilm IC50
# [5] = system: human metastatic melanoma (A2058, ATCC CRL-11147) cells; experiment: Anti-cancer activity against A2058 cells; format: cell-based; settings: A2058, read-out: Anti-cancer IC50
# Method: Cytotoxicity of the test compounds was evaluated after 72 hour exposure to human metastatic melanoma (A2058, ATCC CRL-11147) cells.
# A2058 cells were grown overnight (2,000 cells/well), and then incubated with the test compounds (range of concentrations) diluted in MEM Earle's supplemented with gentamycin (10 μg/mL), non-essential amino acids (1%), sodium pyruvate (1 mM), L-alanyl-Lglutamine (2 mM), but without FBS (total volume was 100 μl) for […]. Ten μL of CellTiter 96® AQueous One Solution Reagent (Promega, Madison, Wis., USA) was added, and the plates were then further incubated for 1 hour.
# Absorbance was measured at 485 nm in a DTX 880 Multimode Detector. Results were calculated as % survival compared to negative (assay media) and positive (Triton X-100; Sigma-Aldrich) controls.
# [6] = Escherichia coli, 50676002, read-out: Antimicrobial activity (MIC)
SMILES,MIC [1] [µg/mL],MIC [2] [µg/mL],MIC [3] [µg/mL],MIC [4] [µg/mL],MIC (E. faecium 50673722) [µg/mL],selectivity index (EC50/MIC) (E. faecium 50673722),MIC (E. faecium 50758899) [µg/mL],selectivity index (EC50/MIC) (E. faecium 50758899),MIC (E. faecium 50901530) [µg/mL],selectivity index (EC50/MIC) (E. faecium 50901530),MIC (E. faecium K36-18) [µg/mL],selectivity index (EC50/MIC) (E. faecium K36-18),MIC (E. faecium TUH50-22) [µg/mL],selectivity index (EC50/MIC) (E. faecium TUH50-22),MIC (E. coli 50579417) [µg/mL],selectivity index (EC50/MIC) (E. coli 50579417),MIC (E. coli 50639799) [µg/mL],selectivity index (EC50/MIC) (E. coli 50639799),selectivity index (EC50/MIC) (E. coli 50676002; E. coli 50676002),MIC (E. coli 50739822) [µg/mL],further results
NCCCCN1C(=O)N(CCCCN)C(=O)C(Cc2cc(C(F)(F)F)cc(C(F)(F)F)c2)(Cc2cc(C(F)(F)F)cc(C(F)(F)F)c2)C1=O [7(vi)],1,8,8,8,8,(23),16,(11),8,(23),16,(11),8,(23),16,(11),16,(11),(11),16,MIC (E. coli 50676002; [6]): 16 µg/mL; selectivity index (EC50/MIC) (E. coli 50739822): (11); MIC (E. coli 50857972): 8 µg/mL; selectivity index (EC50/MIC) (E. coli 50857972): (23); MIC (A. baumanii K12-21): 16 µg/mL; selectivity index (EC50/MIC) (A. baumanii K12-21): (11); MIC (A. baumanii K55-13): 32 µg/mL; selectivity index (EC50/MIC) (A. baumanii K55-13): (6); MIC (A. baumanii K63-58): 32 µg/mL; selectivity index (EC50/MIC) (A. baumanii K63-58): (6)
"CC(C)(C)c1cc(CC2(Cc3cc(C(C)(C)C)cc(C(C)(C)C)c3)C(=O)N(CCCCNC(=N)N)C(=O)N(CCCCNC(=N)N)C2=O)cc(C(C)(C)C)c1 [8(iii), 1,1′-(4,4′-(5,5-bis(3,5-di-tert-butylbenzyl)-2,4,6-trioxodihydropyrimidine-1,3(2H,4H)-diyl)bis(butane-4,1-diyl))-diguanidine]",0.25,4,4,1,2,(<2),2,(<2),2,(<2),2,(<2),2,(<2),16,(<0.25),8,(<0.5),(<0.25),8,"MIC (E. coli 50676002; Escherichia coli, E. coli 50676002, read-out: Antimicrobial activity (MIC)): 16 µg/mL; selectivity index (EC50/MIC) (E. coli 50739822): (<0.5); MIC (E. coli 50857972): 8 µg/mL; selectivity index (EC50/MIC) (E. coli 50857972): (<0.5); MIC (A. baumanii K12-21): 4 µg/mL; selectivity index (EC50/MIC) (A. baumanii K12-21): (<1); MIC (A. baumanii K55-13): 4 µg/mL; selectivity index (EC50/MIC) (A. baumanii K55-13): (<1); MIC (A. baumanii K63-58): 4 µg/mL; selectivity index (EC50/MIC) (A. baumanii K63-58): (<1); IC50 (S. epidermidis): 2 µg/mL; IC50 [5]: 33 µg/mL"
"CC(C)(C)c1ccc(CC2(Cc3ccc(C(C)(C)C)cc3)C(=O)N(CCCCN)C(=O)N(CCCCN)C2=O)cc1 [Compound 7(i), 1,3-bis(4-aminobutyl)-5,5-bis(4-tertbutylbenzyl) pyrimidin-2,4,6(1H,3H,5H)-trione]",1,4,8,4,8,(18),8,(18),4,(36),8,(18),8,(18),8,(18),8,(18),(36),8,MIC (E. coli 50676002; [6]): 4 µg/mL; selectivity index (EC50/MIC) (E. coli 50739822): (18); MIC (E. coli 50857972): 4 µg/mL; selectivity index (EC50/MIC) (E. coli 50857972): (36); MIC (A. baumanii K12-21): 16 µg/mL; selectivity index (EC50/MIC) (A. baumanii K12-21): (9); MIC (A. baumanii K55-13): 16 µg/mL; selectivity index (EC50/MIC) (A. baumanii K55-13): (9); MIC (A. baumanii K63-58): 16 µg/mL; selectivity index (EC50/MIC) (A. baumanii K63-58): (9); IC50 (S. epidermidis): 4 µg/mL; IC50 [5]: 1 µg/mL
